Structures are written as SMILES.

Broadly, the IC50 is the concentration at which inhibition is half-maximal. The term half-life denotes the time in which the quantity being followed falls by half. Read a high half-life as slow loss. As a reminder, the bioavailability is dose-corrected exposure relative to a reference, in per cent.

For one data set, the target named is T1, human GnRHR (Homo sapiens, UniProt P30968).
T1 construct: own knowledge: Tag-lite cells usually carry an N-terminal SNAP-tag fusion; host or cells: Hek293 cells, transiently transfected, supplied frozen
T1 sequence (P30968 1-328): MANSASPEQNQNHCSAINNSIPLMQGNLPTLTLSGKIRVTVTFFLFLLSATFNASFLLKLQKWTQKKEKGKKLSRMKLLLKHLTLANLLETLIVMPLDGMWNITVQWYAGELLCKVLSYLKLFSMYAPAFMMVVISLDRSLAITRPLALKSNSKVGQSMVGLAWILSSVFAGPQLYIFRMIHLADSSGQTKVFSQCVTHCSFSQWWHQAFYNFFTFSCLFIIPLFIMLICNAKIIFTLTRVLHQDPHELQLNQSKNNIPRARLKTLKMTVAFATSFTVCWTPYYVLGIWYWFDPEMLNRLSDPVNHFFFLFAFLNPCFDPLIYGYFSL
Put plainly: Tag-Lite receptor binding assay. The note with it: Hek293 cells transiently transfected with human GnRHR; displacement of green-labelled GnRHR binding peptide; read-out: Potency in receptor binding assay using TAG-LITE technology, given as IC50. From the text: 2.2. Tag-Lite® Receptor Binding Assay
This binding assay is based on the fluorescence resonance energy transfer between fluorescence donor labelled human GnRHR and a green-labelled GnRHR binding peptide. Compounds interfering with the ligand binding side of the human GnRHR will replace the labelled peptide resulting in a signal decrease. The assay principle was established by Cisbio Bioassays (Bagnols-sur-Cèze Cedex, France) and further details are available on their homepage.
The assay procedure was further optimized for use in-house with reduced assay volumes. Frozen Hek293 cells, transiently transfected with human GnRHR and Terbium-labelling of the receptor, were supplied by Cisbio Bioassays as well as Tag-Lite buffer and green-labelled GnRHR binding peptide. Cells were thawed and transferred to cold Tag-Lite buffer. A volume of 8 μl of this cell suspension were added to 100 nl of a 160-fold concentrated solution of the test compound in DMSO pre-dispensed in a well of a white low-volume 384-well microtiter plate (Greiner Bio-One, Frickenhausen, Germany). The mixture was incubated for 5 min at room temperature. In the next step either 4 μl Tag-Lite buffer or as control 4 μl of an exceeding amount unlabelled binding peptide in Tag-Lite buffer were transferred to the mixture. The green-labelled GnRHR binding peptide was added in a final step at EC50 in a volume of 4 μl Tag-Lite buffer. After an incubation of 1 h at room temperature plates were measured in a microplate reader, e.g. a PHERAstar (BMG Labtechnologies, Offenburg, Germany) by using a specific optic module.
A ratio from the fluorescence emissions at 520 nm (green fluorescence) and at 490 nm (background signal of Terbium-labelled GnRHR) was calculated and the data were normalized (reaction without test compound=0% inhibition of binding of green-labelled peptide; reaction without test compound with exceeding amount unlabelled binding peptide=100% inhibition of binding of green-labelled peptide). On the same microtiter plate, compounds were tested at 10 different concentrations in the range of 12.5 μM to 0.64 nM (12.5 μM, 4.2 μM, 1.4 μM, 0.46 μM, 0.15 μM, 51 nM, 17 nM, 5.7 nM, 1.9 nM and 0.64 nM; dilution series prepared before the assay at the level of the 160-fold conc. stock solutions by serial 1:3 dilutions in 100% DMSO) in duplicate values for each concentration. By using an in-house software, the IC50 values were calculated by a 4 parameter fit.

Another data set concerns the target T2, human GnRH receptor (Homo sapiens, UniProt P30968).
T2 construct: host or cells: CHO cells stably expressing human GnRH receptor (line established by Prof. Thomas Gudermann)
T2 sequence (P30968 1-328): T1 sequence (P30968 1-328)
The data set is described as follows: IP-One HTRF assay with buserelin stimulation. It counts as cell-based. The note with it: CHO cells stably expressing human GnRH receptor; buserelin at EC80; read-out: Potency in IP-One HTRF assay with buserelin (at EC80) stimulation, given as IC50. From the text:
By using homogenous time-resolved fluorescence resonance energy transfer (HTRF), the generation of one component of the GnRH-R signalling cascade can be measured. After stimulation of CHO cells stably expressing human GnRH receptor (established by Prof. Thomas Gudermann, currently University of Marburg, Germany; supplied as frozen cell aliquots by Cell Culture Services, Hamburg, Germany) with the EC80 of the GnRH agonist buserelin, Gq protein-coupled receptor signalling cascade is activated resulting in PLC-dependent cleavage of PIP2 to Inositol-1,4,5-triphosphate (IP3) and Diacylglycerol. The second messenger IP3 is degraded intracellularly to myo-inositol. Inhibition of the final degradation step from Inositol-1-phosphate (IP1) to myo-inositol by addition of lithium chloride leads to accumulation of IP1 in the cells. In cell lysates, IP1 can be detected via an antibody-based HTRF detection technology, where IP1 can displace the FRET acceptor IP1-d2 from binding by Terbium-labelled anti-IP1 antibody as donor resulting in a signal decrease. Compounds were tested for their capability of inhibiting GnRH-R activation by buserelin. For all IP-One HTRF® assays reagents of Cisbio Bioassays (IP-One Tb Jumbo kit, #62IPAPEJ; Cisbio Bioassays, Bagnols sur Cèze Cedex, France) were used.
For the assay, frozen cell aliquots were thawed and a cell suspension (3.33×10^6 cells/mL) containing IP1-d2 (dilution 1:40) was prepared and incubated at 37° C. After 1 h 3 μl of the cell suspension were added to 50 nl of a 100-fold concentrated solution of the test compound in DMSO pre-dispensed in a well of a white low-volume 384-well microtiter plate (Greiner Bio-One, Frickenhausen, Germany). […] Plates were incubated for 1 h at 37° C. and 5% carbon dioxide before the cells were lysed by adding 3 μl Terbium-labelled anti-IP1 antibody (1:40) diluted in Conjugate & Lysis buffer as supplied with the kit. After an incubation for 1 h at 22° C. to enable complete cell lysis and antibody binding to free IP1 or IP1-d2, plates were measured in an HTRF reader, e.g. a RUBYstar, PHERAstar (both BMG Labtechnologies, Offenburg, Germany) or a Viewlux (PerkinElmer LAS, Rodgau-Jügesheim, Germany).
From the fluorescence emissions at 665 nm (FRET) and at 620 nm (background signal of Terbium-antibody), the ratio (emission at 665 nm divided by emission at 620 nm) was calculated and the data were normalized (reaction without test compound=0% inhibition; all other assay components except agonist=100% inhibition). On the same microtiter plate, compounds were tested at 10 different concentrations in the range of 20 μM to 1 nM (20 μM, 6.7 μM, 2.2 μM, 0.74 μM, 0.25 μM, 82 nM, 27 nM, 9.2 nM, 3.1 nM and 1 nM; dilution series prepared before the assay at the level of the 100-fold conc. stock solutions by serial 1:3 dilutions in 100% DMSO) in duplicate values for each concentration. By using an in-house software, the IC50 values were calculated by a 4 parameter fit.
Within the meaning of the present invention the antagonist activity is reflected by the ability of a compound of the invention to antagonize human GnRH receptor stimulation in IP-One HTRF® assay at least three times the standard deviation over the background level.
A general note: In TR-FRET formats the signal depends on donor and acceptor labels being close together.

A short description of data set [1]: In vivo pharmacokinetics in rats. The note with it: Wistar, rat, plasma, po, male rats, 2 mg/kg p.o. As to the method: 2.4 In Vivo Pharmacokinetics in Rats
For in vivo pharmacokinetic experiments test compounds were administered to male Wistar rats intravenously at a dose of 0.5 mg/kg and intragastral at a dose of 2 mg/kg formulated as solutions using solubilizers such as PEG400 or Solutol in well-tolerated amounts.
For pharmacokinetics after intravenous administration test compounds were given as i.v. bolus and blood samples were taken at 2 min, 8 min, 15 min, 30 min, 45 min, 1 h, 2 h, 4 h, 7 h and 24 h after dosing. […] For pharmacokinetics after intragastral administration test compounds were given intragastral to fasted rats and blood samples were taken at 8 min, 15 min, 30 min, 45 min, 1 h, 2 h, 4 h, 7 h and 24 h after dosing. […] Blood was collected into Lithium-Heparintubes (Monovetten®, Sarstedt) and centrifuged for 15 min at 3000 rpm. An aliquot of 100 μL from the supernatant (plasma) was taken and precipitated by addition of 400 μL cold acetonitril and frozen at −20° C. over night. Samples were subsequently thawed and centrifuged at 3000 rpm, 4° C. for 20 minutes. Aliquots of the supernatants were taken for analytical testing using an Agilent 1200 HPLC-system with LCMS/MS detection. PK parameters were calculated by non-compartmental analysis using a PK calculation software.
PK parameters derived from concentration-time profiles after i.v.: CLplasma: Total plasma clearance of test compound (in L/kg/h); CLblood: Total blood clearance of test compound: CLplasma*Cp/Cb (in L/kg/h) with Cp/Cb being the ratio of concentrations in plasma and blood. PK parameters calculated from concentration time profiles after i.g.: Cmax: Maximal plasma concentration (in mg/L); Cmaxnorm: Cmax divided by the administered dose (in kg/L); Tmax: Time point at which Cmax was observed (in h). Parameters calculated from both, i.v. and i.g. concentration-time profiles: AUCnorm: Area under the concentration-time curve from t=0 h to infinity (extrapolated) divided by the administered dose (in kg*h/L); AUC(0−tlast)norm: Area under the concentration-time curve from t=0 h to the last time point for which plasma concentrations could be measured divided by the administered dose (in kg*h/L); t½: terminal half-life (in h); F: oral bioavailability: AUCnorm after intragastral administration divided by AUCnorm after intravenous administration (in %).

Turning to `N#Cc1ccc(S(=O)(=O)N2c3ccc(C(=O)NCc4ncc(C(F)(F)F)cc4Cl)cc3C3(CCS(=O)(=O)CC3)C2C2CC2)cc1` (racemic) [Example 8, N-{[3-chloro-5-(trifluoromethyl)pyridin-2-yl]methyl}-1-[(4-cyanophenyl)sulfonyl]-2-cyclopropyl-1,2,2′,3′,5′,6′-hexahydrospiro[indole-3,4′-thiopyran]-5-carboxamide 1′,1′-dioxide], the half-maximal inhibitory concentration (IC50) on human GnRHR was 21.7 nM; at human GnRH receptor, 22 nM.

Consider `O=C(NCc1ncc(C(F)(F)F)cc1F)c1ccc2c(c1)C1(CCS(=O)(=O)CC1)C(C1CC1)N2S(=O)(=O)c1ccc(Cl)cc1` (racemic) [Example 18, 1-[(4-chlorophenyl)sulfonyl]-2-cyclopropyl-N-{[3-fluoro-5-(trifluoromethyl)pyridin-2-yl]methyl}-1,2,2′,3′,5′,6′-hexahydrospiro[indole-3,4′-thiopyran]-5-carboxamide 1′,1′-dioxide], for which the IC50 at human GnRH receptor was found to be 65 nM.

`O=C(NCc1ncc(C(F)(F)F)cc1Cl)c1ccc2c(c1)C1(CCS(=O)(=O)CC1)C(C1CC1)N2S(=O)(=O)c1ccc(Cl)cc1` (racemic) [Example 19, 1-[(4-chlorophenyl)sulfonyl]-N-{[3-chloro-5-(trifluoromethyl)pyridin-2-yl]methyl}-2-cyclopropyl-1,2,2′,3′,5′,6′-hexahydrospiro[indole-3,4′-thiopyran]-5-carboxamide 1′,1′-dioxide]: the IC50 on human GnRH receptor was found to be 31 nM.

As to `O=C(NCc1ncc(C(F)(F)F)cc1F)c1ccc2c(c1)C1(CCS(=O)(=O)CC1)[C@@H](C1CC1)N2S(=O)(=O)c1ccc(F)cc1` (single isomer, unassigned) [Example 1.2], on human GnRH receptor, the half-inhibitory concentration (IC50) was found to be 6990 nM.

Consider `N#Cc1ccc(S(=O)(=O)N2c3ccc(C(=O)NCc4ncc(C(F)(F)F)cc4F)cc3C3(CCS(=O)(=O)CC3)C2C2CC2)cc1` (single isomer, unassigned) [Example 7.2], for which the IC50 on human GnRH receptor amounted to 57 nM.

For the compound `N#Cc1ccc(S(=O)(=O)N2c3ccc(C(=O)NCc4ncc(C(F)(F)F)cc4Cl)cc3C3(CCS(=O)(=O)CC3)[C@@H]2C2CC2)cc1` (single isomer, unassigned) [Example 8.1], at human GnRH receptor, the IC50 worked out at 10 nM. The compound further showed a half-life in data set [1] of 5 h. Further, the bioavailability in data set [1] (AUCnorm intragastral / AUCnorm i.v. (0.5 mg/kg), read-out: F (oral bioavailability)) amounted to 17%.

With `N#Cc1ccc(S(=O)(=O)N2c3ccc(C(=O)NCc4ncc(C(F)(F)F)cc4Cl)cc3C3(CCS(=O)(=O)CC3)[C@H]2C2CC2)cc1` (single isomer, unassigned) [Example 8.2], the IC50 at human GnRH receptor was determined as 3560 nM.

On to `N#Cc1cccc(S(=O)(=O)N2c3ccc(C(=O)NCc4ncc(C(F)(F)F)cc4Cl)cc3C3(CCS(=O)(=O)CC3)[C@H]2C2CC2)c1` (single isomer, unassigned) [Example 10.2], for which the half-maximal inhibitory concentration (IC50) at human GnRH receptor amounted to 1970 nM.

As for `O=C(NCc1ncc(C(F)(F)F)cc1Cl)c1ccc2c(c1)C1(CCS(=O)(=O)CC1)C(C1CC1)N2S(=O)(=O)c1ccc(OC(F)F)cc1` (single isomer, unassigned) [Example 16.2], the IC50 at human GnRH receptor was found to be 879 nM.

For the compound `NC(=O)c1ccc(S(=O)(=O)N2c3ccc(C(=O)NCc4ncc(C(F)(F)F)cc4Cl)cc3C3(CCS(=O)(=O)CC3)C2C2CC2)cc1` (single isomer, unassigned) [Example 17.1], the IC50 at human GnRH receptor is greater than 20000 nM.

For `O=C(NCc1ncc(C(F)(F)F)cc1F)c1ccc2c(c1)C1(CCS(=O)(=O)CC1)C(C1CC1)N2S(=O)(=O)c1ccc(Cl)cc1` (single isomer, unassigned) [Example 18.1], at human GnRH receptor, the IC50 turned out to be 31 nM.
